As usually defined, the AC50 is the concentration giving half of the maximal activity seen. For orientation: EC50 means the concentration at which the effect is half-maximal.

The source made the active and inactive calls. Cut-off read from the data, not from the text of the source, for most assays here: actives have a measured AC50 and inactives only a lower limit.

For three compounds, AC50 and EC50 results are on record in ChEMBL document CHEMBL1201862, “PubChem BioAssay data set” (2004).

In test [1] the target is T1, Replicative DNA helicase DnaB (Mycobacterium tuberculosis, UniProt P9WMR3).
T1 sequence (P9WMR3 whole entry): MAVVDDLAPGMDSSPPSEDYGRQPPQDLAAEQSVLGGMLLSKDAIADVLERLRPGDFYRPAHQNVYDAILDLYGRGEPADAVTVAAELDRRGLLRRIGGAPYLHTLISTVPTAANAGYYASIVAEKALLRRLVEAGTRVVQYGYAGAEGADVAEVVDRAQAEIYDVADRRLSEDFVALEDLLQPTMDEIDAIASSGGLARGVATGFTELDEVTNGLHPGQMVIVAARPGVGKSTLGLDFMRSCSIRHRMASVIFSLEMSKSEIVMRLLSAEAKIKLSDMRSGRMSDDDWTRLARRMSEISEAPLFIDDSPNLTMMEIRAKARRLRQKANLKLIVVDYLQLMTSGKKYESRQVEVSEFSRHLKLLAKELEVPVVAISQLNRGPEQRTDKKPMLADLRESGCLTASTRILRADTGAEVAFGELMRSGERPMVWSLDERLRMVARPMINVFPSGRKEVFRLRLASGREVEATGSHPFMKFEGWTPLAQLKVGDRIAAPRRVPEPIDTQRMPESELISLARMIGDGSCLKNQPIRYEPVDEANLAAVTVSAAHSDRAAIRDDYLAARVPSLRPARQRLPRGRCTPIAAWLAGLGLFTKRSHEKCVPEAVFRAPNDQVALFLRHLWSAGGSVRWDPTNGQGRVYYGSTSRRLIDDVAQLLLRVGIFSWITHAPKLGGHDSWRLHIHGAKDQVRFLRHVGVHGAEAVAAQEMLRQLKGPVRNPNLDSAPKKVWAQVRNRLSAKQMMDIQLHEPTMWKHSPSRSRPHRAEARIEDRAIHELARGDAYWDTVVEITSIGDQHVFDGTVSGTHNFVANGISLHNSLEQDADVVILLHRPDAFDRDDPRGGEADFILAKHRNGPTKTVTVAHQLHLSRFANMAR
As to the kind of experiment: DnaB intein splicing inhibitors, dose response, biochemical, cell-free fluorescence (AID 449749). The class given is functional.

The next test concerns the target T2, Protein RecA (Mycobacterium tuberculosis, UniProt P9WHJ3).
T2 sequence (P9WHJ3 whole entry): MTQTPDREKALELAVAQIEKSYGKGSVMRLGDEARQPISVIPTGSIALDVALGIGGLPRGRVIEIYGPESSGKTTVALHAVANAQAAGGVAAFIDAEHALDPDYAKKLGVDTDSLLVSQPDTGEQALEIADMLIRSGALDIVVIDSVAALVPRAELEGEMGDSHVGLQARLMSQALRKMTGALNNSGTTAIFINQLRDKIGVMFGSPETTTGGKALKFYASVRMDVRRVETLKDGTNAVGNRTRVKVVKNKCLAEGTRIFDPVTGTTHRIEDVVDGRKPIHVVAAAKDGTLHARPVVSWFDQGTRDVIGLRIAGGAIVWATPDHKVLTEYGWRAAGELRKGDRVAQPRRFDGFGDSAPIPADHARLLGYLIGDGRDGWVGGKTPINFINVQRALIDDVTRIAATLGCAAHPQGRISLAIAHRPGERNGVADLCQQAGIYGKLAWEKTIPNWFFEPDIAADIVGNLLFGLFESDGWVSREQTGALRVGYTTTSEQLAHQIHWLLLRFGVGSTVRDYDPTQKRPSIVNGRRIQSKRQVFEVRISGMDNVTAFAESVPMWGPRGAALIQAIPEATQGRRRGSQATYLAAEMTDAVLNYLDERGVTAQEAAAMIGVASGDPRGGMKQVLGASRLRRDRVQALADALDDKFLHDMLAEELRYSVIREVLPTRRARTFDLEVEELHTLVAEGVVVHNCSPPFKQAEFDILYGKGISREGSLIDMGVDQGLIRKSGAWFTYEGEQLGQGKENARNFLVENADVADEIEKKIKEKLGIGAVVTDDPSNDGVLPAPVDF
As to the kind of experiment: Fluorescence Cell-Free Homogeneous Dose Retest to Identify Inhibitors of RecA-Intein Splicing Activity. [Related pubchem assays (depositor defined):AID2097, AID2223, AID489010, AID492950]. The class given is functional.

For test [2], the target named is T3, Histone-lysine N-methyltransferase NSD2 (Homo sapiens, UniProt O96028).
T3 sequence (O96028 whole entry): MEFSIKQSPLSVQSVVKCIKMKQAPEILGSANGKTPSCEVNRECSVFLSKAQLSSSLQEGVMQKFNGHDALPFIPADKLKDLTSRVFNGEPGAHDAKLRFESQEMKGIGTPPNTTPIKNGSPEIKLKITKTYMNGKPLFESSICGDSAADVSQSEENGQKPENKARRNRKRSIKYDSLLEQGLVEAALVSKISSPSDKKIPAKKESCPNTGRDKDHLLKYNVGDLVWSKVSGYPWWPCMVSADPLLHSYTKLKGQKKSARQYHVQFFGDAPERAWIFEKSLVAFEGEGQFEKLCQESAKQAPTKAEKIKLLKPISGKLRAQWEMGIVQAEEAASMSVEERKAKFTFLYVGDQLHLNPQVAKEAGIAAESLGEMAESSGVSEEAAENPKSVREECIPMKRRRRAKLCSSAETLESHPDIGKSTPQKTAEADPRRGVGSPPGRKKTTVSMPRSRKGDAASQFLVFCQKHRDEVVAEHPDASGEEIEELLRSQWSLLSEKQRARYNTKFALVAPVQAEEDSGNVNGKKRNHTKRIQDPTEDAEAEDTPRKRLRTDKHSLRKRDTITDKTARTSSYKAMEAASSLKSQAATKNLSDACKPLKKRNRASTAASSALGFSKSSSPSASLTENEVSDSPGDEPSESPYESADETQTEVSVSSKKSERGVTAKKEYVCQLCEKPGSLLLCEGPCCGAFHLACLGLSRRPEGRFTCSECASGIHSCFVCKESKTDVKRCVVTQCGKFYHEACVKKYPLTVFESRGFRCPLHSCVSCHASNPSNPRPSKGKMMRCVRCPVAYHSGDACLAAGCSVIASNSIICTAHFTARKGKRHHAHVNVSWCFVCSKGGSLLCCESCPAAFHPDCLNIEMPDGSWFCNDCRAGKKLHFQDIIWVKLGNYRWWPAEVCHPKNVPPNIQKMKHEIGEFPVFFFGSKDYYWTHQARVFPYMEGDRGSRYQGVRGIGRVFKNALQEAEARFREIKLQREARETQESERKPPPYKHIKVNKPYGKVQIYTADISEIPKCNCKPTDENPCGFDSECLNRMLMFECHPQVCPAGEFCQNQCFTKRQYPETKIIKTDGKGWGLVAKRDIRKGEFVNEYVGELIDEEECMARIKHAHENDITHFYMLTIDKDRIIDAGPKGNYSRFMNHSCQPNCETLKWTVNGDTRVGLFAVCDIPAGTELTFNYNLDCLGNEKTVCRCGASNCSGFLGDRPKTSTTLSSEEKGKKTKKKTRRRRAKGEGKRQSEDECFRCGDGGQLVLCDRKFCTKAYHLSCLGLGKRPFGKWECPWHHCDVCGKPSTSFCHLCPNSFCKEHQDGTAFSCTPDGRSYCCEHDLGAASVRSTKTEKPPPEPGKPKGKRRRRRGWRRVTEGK
It is filed as biochemical.

On to `C=CCNC1=C(Cl)C(=O)c2ccccc2C1=O`, for which the AC50 is 4.75 µM (active) in test [1] and 19.4 µM (active) in test [2]. Besides, at Protein RecA, the EC50 was 10.4 µM (active).
With `CS(=O)(=O)c1ccc2c(c1)SC1=NC(=O)/C(=C/c3ccc(O)c(O)c3)C(=N)N12`, in test [2], the concentration at half-maximal activity (AC50) was 1.9 µM (active).
With `CCOC(=O)C(C(=O)OCC)c1cc(Br)c2noc3c2c1C(=O)c1ccccc1-3`, the AC50 is 27.6 µM (active) in test [1] and > 20 µM (inactive) in test [2]. For the same compound, the EC50 at Protein RecA is 0.393 µM (active).
